Experimental data published in patent publication US8217035B2, “Pyrimidine derivatives used as PI-3-kinase inhibitors” (Novartis AG, priority 2006, dated 2012).
Like-named read-outs stand apart in the source and are kept apart here.

How the values were obtained:
PI3 kinase alpha = PI3 kinase alpha (Homo sapiens, UniProt P42336); experiment: PI3K ATP depletion assay (Biological Method 1, Assay 3; KinaseGlo luminescence); format: biochemical; conditions: ATP depletion assay, read-out: PI3 Kinase Alpha, IC50
Sequence of PI3 kinase alpha (P42336 whole entry): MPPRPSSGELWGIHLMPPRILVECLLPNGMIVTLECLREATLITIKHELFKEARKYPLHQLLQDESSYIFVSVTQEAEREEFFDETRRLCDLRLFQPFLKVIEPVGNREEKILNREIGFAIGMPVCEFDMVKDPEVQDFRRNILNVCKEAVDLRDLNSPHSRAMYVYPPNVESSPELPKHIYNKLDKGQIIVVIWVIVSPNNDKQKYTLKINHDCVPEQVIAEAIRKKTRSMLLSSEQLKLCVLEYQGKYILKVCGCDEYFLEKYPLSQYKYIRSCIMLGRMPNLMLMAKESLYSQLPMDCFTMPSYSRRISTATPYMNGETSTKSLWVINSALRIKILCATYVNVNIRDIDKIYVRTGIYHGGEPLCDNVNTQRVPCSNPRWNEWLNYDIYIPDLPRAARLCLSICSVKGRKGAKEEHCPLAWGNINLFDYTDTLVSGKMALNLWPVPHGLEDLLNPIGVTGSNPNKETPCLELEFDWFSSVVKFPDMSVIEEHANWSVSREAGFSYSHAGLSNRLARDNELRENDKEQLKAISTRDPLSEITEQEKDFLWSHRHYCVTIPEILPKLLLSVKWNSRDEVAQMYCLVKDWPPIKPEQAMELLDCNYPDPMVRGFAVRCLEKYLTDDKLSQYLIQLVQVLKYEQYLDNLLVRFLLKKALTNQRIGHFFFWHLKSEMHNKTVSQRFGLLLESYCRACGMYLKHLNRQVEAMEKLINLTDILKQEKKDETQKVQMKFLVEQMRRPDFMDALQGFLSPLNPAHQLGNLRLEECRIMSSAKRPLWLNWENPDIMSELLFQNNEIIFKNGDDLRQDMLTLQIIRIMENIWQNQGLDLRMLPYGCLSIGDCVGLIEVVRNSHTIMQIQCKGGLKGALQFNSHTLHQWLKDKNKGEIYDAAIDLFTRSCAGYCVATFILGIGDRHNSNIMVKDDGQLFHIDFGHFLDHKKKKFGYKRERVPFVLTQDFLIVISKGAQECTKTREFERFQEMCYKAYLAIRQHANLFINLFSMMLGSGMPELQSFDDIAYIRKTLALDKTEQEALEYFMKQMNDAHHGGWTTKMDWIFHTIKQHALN
Sequence of PI3 kinase alpha (P27986 whole entry partner): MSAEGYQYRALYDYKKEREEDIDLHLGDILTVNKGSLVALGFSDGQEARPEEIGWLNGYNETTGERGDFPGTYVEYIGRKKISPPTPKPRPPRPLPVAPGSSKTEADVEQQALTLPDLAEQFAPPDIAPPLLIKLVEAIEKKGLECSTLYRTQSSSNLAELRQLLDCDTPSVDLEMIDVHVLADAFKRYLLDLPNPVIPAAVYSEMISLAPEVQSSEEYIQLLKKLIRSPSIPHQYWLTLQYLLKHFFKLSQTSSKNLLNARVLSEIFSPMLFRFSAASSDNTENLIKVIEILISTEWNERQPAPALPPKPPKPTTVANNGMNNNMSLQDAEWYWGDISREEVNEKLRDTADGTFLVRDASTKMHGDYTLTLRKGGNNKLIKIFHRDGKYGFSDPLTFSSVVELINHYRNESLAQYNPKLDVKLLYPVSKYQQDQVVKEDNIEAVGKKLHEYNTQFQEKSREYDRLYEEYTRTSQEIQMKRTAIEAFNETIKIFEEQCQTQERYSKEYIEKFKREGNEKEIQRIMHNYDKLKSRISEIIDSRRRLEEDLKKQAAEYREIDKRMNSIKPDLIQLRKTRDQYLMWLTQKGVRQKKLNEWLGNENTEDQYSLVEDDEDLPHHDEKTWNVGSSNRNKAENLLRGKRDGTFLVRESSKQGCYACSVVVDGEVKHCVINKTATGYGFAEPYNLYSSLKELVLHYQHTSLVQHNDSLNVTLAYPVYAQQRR
In short: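 Compound in DMSO was mixed with 10 nM PI3 kinase and 5 μg/mL phosphatidylinositol, and the reaction was started with 2 μM ATP. It ran to about 50% ATP depletion and was stopped with KinaseGlo.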

[1] = system: A2780 ovarian cancer cells; experiment: Cellular proliferation in A2780 cells, Cell Titer Glo (Biological Method 4); format: cell-based; conditions: Homo sapiens
Method: In addition, many of the compounds of Table 1 were tested to determine their inhibitory activity in a cellular proliferation assay according to Biological Method 4.
The ability of the compounds of the invention to inhibit cellular proliferation were determined by using Cell Titer Glo, a commercially available assay from Promega Corporation. A2780 ovarian cancer cells were seeded in TC treated 96-well plates at a density of 1,000 per well in DMEM, 10% FBS, 1% Sodium Pyruvate, and 1% Penicillin Streptomycin for a minimum of 2 hrs prior to addition of compound. For each concentration of test compound, 2 μl (500×) aliquots of compound or 100% DMSO diluted in 500 μl of culture medium for 2× concentration then diluted 1× on the Cells. Cells were incubated for 72 hrs at 37° C., 5% CO2. After the 72 hour incubation, Cell Titer Glo reagent is added to determine number of viable cells remaining after exposure to the compound, and the EC50 value was calculated. The assay was performed according to the manufacturer's instruction (Promega Corporation, Madison, Wis. USA). Each experimental condition was performed in duplicate.

[2] = ovarian cancer cell line A2780, Biological Method 4

Row | SMILES | IC50 (PI3 kinase alpha; Biological Method 1) [nM] | EC50 [1, 2] [µM] | IC50 (PI3 kinase alpha) [nM] | EC50 ([1]; ovarian cancer cell line A2780) [µM]
1 | Nc1ccc(-c2cc(Nc3ccnc4cc(C(F)(F)F)ccc34)nc(N3CCOCC3)n2)cn1 [Compound 380] | < 1000 | < 10 | – | –
2 | Nc1ccc(-c2cc(Nc3ccnc4c(C(F)(F)F)cccc34)nc(N3CCOCC3)n2)cn1 [Compound 383] | < 1000 | < 10 | – | –
3 | Nc1ccc(-c2cc(Nc3ccc4c(c3)OCC(=O)N4)nc(N3CCOCC3)n2)cn1 [Compound 384] | < 1000 | < 10 | – | –
4 | Nc1ccc(-c2cc(Nc3ccc4c(c3)OCCO4)nc(N3CCOCC3)n2)cn1 [Compound 386] | < 1000 | < 10 | – | –
5 | Nc1ccc(-c2cc(N3CCOc4ccccc43)nc(N3CCOCC3)n2)cn1 [Compound 387] | < 1000 | < 10 | – | –
6 | Nc1ncc(-c2cc(Nc3cnccc3C(F)(F)F)nc(N3CCOCC3)n2)cn1 [Compound 390] | < 1000 | < 10 | – | –
7 | Nc1ncc(-c2cc(N3CCNC(=O)C3)nc(N3CCOCC3)n2)cn1 [Compound 392] | < 1000 | < 10 | – | –
8 | Nc1ncc(-c2cc(Nc3ccccc3C(F)(F)F)nc(N3CCOCC3)n2)cn1 [Compound 393] | < 1000 | < 10 | – | –
9 | Nc1ncc(-c2cc(N3CCCC3)nc(N3CCOCC3)n2)cn1 [Compound 399] | – | – | < 1000 | < 10
10 | CN(C)c1cc(-c2cnc(N)nc2)nc(N2CCOCC2)n1 [Compound 400] | – | – | < 1000 | < 10
11 | CNc1cc(-c2cnc(N)nc2)nc(N2CCOCC2)n1 [Compound 401] | – | – | < 1000 | < 25
12 | Nc1ncc(-c2cc(NC3CC3)nc(N3CCOCC3)n2)cn1 [Compound 402] | – | – | < 1000 | < 10
13 | Nc1ncc(-c2cc(N3CCc4ccccc4C3)nc(N3CCOCC3)n2)cn1 [Compound 403] | – | – | < 1000 | < 10
14 | CN(c1cc(-c2cnc(N)nc2)nc(N2CCOCC2)n1)C1CCCCC1 [Compound 404] | – | – | < 1000 | < 10
15 | Nc1ncc(-c2cc(NC3CCCCC3)nc(N3CCOCC3)n2)cn1 [Compound 405] | – | – | < 1000 | < 10
16 | Nc1ncc(-c2cc(NCC3CCCCC3)nc(N3CCOCC3)n2)cn1 [Compound 406] | – | – | < 1000 | < 25

Row | SMILES | IC50 (PI3 kinase alpha; Biological Method 1) [nM] | EC50 [1, 2] [µM] | IC50 (PI3 kinase alpha) [nM] | EC50 ([1]; ovarian cancer cell line A2780) [µM]
17 | Nc1ncc(-c2cc(N3CCCC3Cc3ccccc3)nc(N3CCOCC3)n2)cn1 (stereo not shown) [Compound 407] | – | – | < 1000 | < 10
18 | Nc1ncc(-c2cc(Nc3ccnc4cc(C(F)(F)F)ccc34)nc(N3CCOCC3)n2)cn1 [Compound 409] | – | – | < 1000 | < 1
19 | Nc1ncc(-c2cc(Nc3ccnc4ccc(C(F)(F)F)cc34)nc(N3CCOCC3)n2)cn1 [Compound 410] | – | – | < 1000 | < 10
20 | Nc1ncc(-c2cc(N3CCCc4ccccc43)nc(N3CCOCC3)n2)cn1 [Compound 411] | – | – | < 1000 | < 10
21 | Nc1ncc(-c2cc(Nc3ccc4c(c3)OCC(=O)N4)nc(N3CCOCC3)n2)cn1 [Compound 412] | – | – | < 1000 | < 1
22 | Nc1ncc(-c2cc(Nc3ccc4c(c3)NC(=O)CO4)nc(N3CCOCC3)n2)cn1 [Compound 413] | – | – | < 1000 | < 10
23 | N#Cc1cc(-c2ccc(N)nc2)nc(N2CCOCC2)n1 [Compound 415] | – | – | < 1000 | < 25
24 | N#Cc1cc(N)ncc1-c1cc(-c2cccnc2F)nc(N2CCOCC2)n1 [Compound 417] | – | – | < 1000 | < 25
25 | N#Cc1cnc(N2CCOCC2)nc1-c1cnc(N)nc1 [Compound 418] | – | – | < 1000 | < 25
26 | Nc1ncc(-c2nc(N3CCOCC3)ncc2C(=O)N2CCNC(=O)C2)cn1 [Compound 427] | – | – | < 10000 | < 25
27 | CN1CCN(C(=O)c2cnc(N3CCOCC3)nc2-c2cnc(N)nc2)CC1 [Compound 428] | – | – | < 10000 | < 25
28 | COC(=O)c1cnc(N2CCOCC2)nc1-c1cnc(N)nc1 [Compound 431] | – | – | < 1000 | < 25
29 | CC(C)Oc1ccnc(Nc2cc(-c3cnc(N)cc3C(F)(F)F)nc(N3CCOCC3)n2)c1 [Compound 432] | – | – | < 1000 | < 10
30 | Nc1ccc(-c2cc(Nc3cc(F)ccc3F)nc(N3CCOCC3)n2)cn1 [Compound 436] | – | – | < 1000 | < 10
31 | N#Cc1cccc(Nc2cc(-c3ccc(N)nc3)nc(N3CCOCC3)n2)c1 [Compound 437] | – | – | < 1000 | < 10
32 | Nc1ccc(-c2cc(Nc3ccc4ccccc4n3)nc(N3CCOCC3)n2)cn1 [Compound 438] | – | – | < 1000 | < 10
